Legend:
[1] = tested on: human prostatic carcinoma cells PC-3; assay: Inhibitory action against the growth of subcutaneously implanted tumor (Test Example 2, subcutaneous dosing); format: in vivo, human; BALB/c nu/nu mouse; settings: 80 mg/kg s.c., Mon/Wed/Fri for 3 weeks; for Tumor volume gain: 46th day after transplantation, mean ± SD; for T/C: 46th day, ratio of tumor volume gain treated/control
Method: Inhibitory action of the test compounds against the growth of subcutaneously implanted tumor
The human prostatic carcinoma cells PC-3, which are maintained in vitro, were harvested using 0.05% trypsin, washed with Ham's F12K medium containing 10% serum, and then suspended in PBS (phosphate-buffered saline) at a concentration of 3×10^7 cells/ml. The aliquot of 100 μl was transplanted into the right central flank region of a 7-week old, male BALB/c nu/nu mouse using a syringe with a 25 gauge needle. After the size of the resulting tumor mass was measured on the 25th day after the transplantation, the mice were divided into groups of five animals (the average tumor volume of each group was between […]), and then the treatment with test compounds was commenced. Tumor volume was calculated according to the formulation: tumor volume =0.5×(the longest diameter)×(the shortest diameter)^2 after two-dimensional measurement of the tumor mass by a caliper. The test compounds were suspended in 0.5% methylcellulose/physiological saline, and subcutaneously injected at a volume of 10 μl/g body weight.
Thereafter the test compounds were administered every Monday, Wednesday and Friday for 3 weeks. The inhibitory action was assessed on the 46th day after the transplanation by the ratio of tumor volume gain of treated groups to that of the control group(T/C %). The dosage of the test compounds was expressed as mg/kg/shot.

[2] = tested on: Prostate carcinoma cell line PC-3; assay: In vitro prostate carcinoma cell proliferation inhibition assay (MTT); format: cell-based, human; settings: Homo sapiens, 72 h; PC-3, 3 days incubation, MTT; read-out: IC50 PC-3
Method: In vitro prostate carcinoma cell proliferation inhibition assay
Prostate carcinoma cell line PC-3 cells were suspended in Ham's F-12K medium (Flow Laboratories or Dainippon Pharmaceutical Co,. Ltd) supplemented with 10% fetal calf serum, and seeded in a 96-well microtiter plate (5000 cells/50 or 75 μl/well). The plate was then incubated in a 5% CO2 incubator at 37° C. On the following day, a 3-fold dilution series with the medium with serum of the test compound in N,N-dimethylformamide (DMF) (50 or 25 μl/well) were added (final volume […]) and the plate was incubated for another 3 days. Following addition of a thiazolyl-tetrazolium (MTT) solution, absorbance based on the viable cell number was determined "Tada et al., Journal of Immunological Methods, 93, 157 (1986)". With the estimated cell number in the control group to which the test compound solution was not added being taken as 100%, the percentage of the estimated cell number in each test group was determined and the concentration (IC50 value) of the test compound which was required for 50% inhibition of the estimated viable cell number in the control group was calculated.

[3] = tested on: human prostatic carcinoma cells PC-3; assay: Inhibitory action against the growth of subcutaneously implanted tumor (Test Example 3, oral dosing); format: in vivo, human; BALB/c nu/nu mouse; settings: 75 mg/kg p.o., once a day for 3 weeks
Method: Inhibitory action of the test compound against the growth of subcutaneously implanted tumor
The human prostatic carcinoma cells PC-3, which are maintained in vitro, were harvested using 0.05% trypsin, washed with Ham's F12K medium containing 10% serum, and then suspended in PBS (phosphate-buffered saline) at a concentration of 3×10^7 cells/ml. The aliquot of 100 μl was transplanted into the right central flank region of a 7-week old, male BALB/c nu/nu mouse using a syringe with a 25 guage needle. After the size of the resulting tumor mass was measured on the 32nd day after the transplantation, the mice were divided into groups of five animals (the average tumor volume of each group was between 273 and 293 mm^3), and then the treatment with test compound was commenced. Tumor volume was calculated according to the formulation: tumor volume =0.5×(the longest diameter)×(the shortest diameter)2 after two-dimensional measurement of the tumor mass by a caliper. The test compound was suspended in 0.5% methylcellulose/physiological saline, and orally administered at a volume of 10 μl/g body weight. […] The inhibitory action was assessed on the 53rd day after the transplanation, the first day after the last administration, by the ratio of tumor volume gain of treated groups to that of the control group (T/C %). The dosage of the test compounds was expressed as mg/kg/shot.

SMILES	Tumor volume gain [1]	T/C [1]	IC50 [2]	Tumor volume gain ([3]; 53rd day after transplantation, mean ± SD)	T/C ([3]; 53rd day, ratio of tumor volume gain treated/control)
Cn1c(SCc2ccc(C(=O)c3ccc(Cl)cc3)cc2)nc2ccsc2c1=O [Example 7, 2-[4-(4-Chlorobenzoyl)benzyl]thio-3-methylthieno-[3,2-d]pyrimidin-4(3H)-one]	445 ± 110 mm^3	49%			
Cc1cccc2nc(SCc3ccc(C(=O)c4ccc(Cl)cc4)cc3)n(C)c(=O)c12 [Example 42, 2-[4-(4-Chlorobenzoyl)benzylthio]-3,5-dimethyl-quinazolin-4-one]	329 ± 252 mm^3	36%			
O=C(c1ccc(Cl)cc1)c1ccc(Cn2ccn3c(=O)c4c(nc23)CCCC4)cc1 [Example 189, 1-[4-(4-Chlorobenzoyl)benzyl]-6,7,8,9-tetrahydroimidazo[2,1-b]quinazolin-5(1H)-one]			1.9 nM	697 ± 199 mm^3	53%

Source: US5753664A, “Heterocyclic compounds, their production and use” (Takeda Chemical Industries, Ltd., priority 1995, dated 1998)
